Read-outs that look alike come from different tables or passages of the source.
Tests used:
[1] = tested on: breast cancer model (MMTV-PyMT); details: cited from earlier work
[2] = target: T1, Bovine LOX (Bos taurus, UniProt P33072); assay: LOX inhibition, hydrogen peroxide Amplex Red oxidation assay; format: biochemical; details: 2 h incubation with enzyme at 37 °C
T1 sequence (P33072 170-418): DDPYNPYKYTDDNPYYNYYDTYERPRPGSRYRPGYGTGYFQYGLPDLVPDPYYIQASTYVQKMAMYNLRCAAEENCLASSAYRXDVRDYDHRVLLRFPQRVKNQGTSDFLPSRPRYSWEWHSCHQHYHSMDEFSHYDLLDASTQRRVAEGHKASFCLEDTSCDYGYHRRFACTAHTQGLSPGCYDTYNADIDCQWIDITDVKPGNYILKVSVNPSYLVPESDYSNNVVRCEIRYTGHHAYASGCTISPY
Procedure: (§1) LOX and LOXL protein family members can be acquired as recombinant active proteins from commercial sources, or extracted from animal tissues like bovine aorta, tendons, pig skin; or prepared from cell cultures. The inhibitory effects of the compounds of the present invention were tested against the given LOX or LOXL preparation using a method based on the detection of hydrogen peroxide with an Amplex Red oxidation assay [Zhou et al, 1997]. The assay was developed using either 384 or 96 well format. Briefly, in a standard black, clear bottom 384 well plate assay 25 µL of a dilution of any of the isoenzymes and orthologues in 1.2 M urea, 50 mM sodium borate buffer (pH 8.2) were added into each well in the presence of […] and 0.5 mM pargyline (to inhibit SSAO and MAO-B and MAO-A, respectively; not necessary if the enzyme is from a recombinant or purified form). […] of a reaction mixture containing twice the KM concentration of putrescine (Sigma Aldrich, e.g. 20 mM for LOX and LOXL1 or 10 mM for LOXL2 and 4 mM for LOXL3 and LOXL4), 120 µM Amplex Red (Thermo Fisher Scientific) and 1.5 U/mL horseradish peroxidase (Sigma Aldrich) prepared in 1.2 M urea, 50 mM sodium borate buffer (pH 8.2) were then added to the corresponding wells. The above volumes were doubled in the case of 96 wells plate. The fluorescence (RFU) was read every 2.5 min for 30 min at 37 °C, excitation 544 nm and emission 590 (Optima; BMG labtech). The slope/min of the kinetics for each well was calculated using MARS data analysis software (BMG labtech) and this value was used to deduce the IC50 value (Dotmatics). The ability of the inventive compounds to inhibit the amine oxidase activity of LOX and other family members is shown in Table 5.

[3] = target: T2, LOXL2 (Homo sapiens, UniProt Q9Y4K0); assay: LOXL2 inhibition, Amplex Red oxidation assay; format: biochemical; details: 2 h incubation with enzyme at 37 °C; read-out: Human LOXL2 Activity IC50
T2 sequence (Q9Y4K0 26-774): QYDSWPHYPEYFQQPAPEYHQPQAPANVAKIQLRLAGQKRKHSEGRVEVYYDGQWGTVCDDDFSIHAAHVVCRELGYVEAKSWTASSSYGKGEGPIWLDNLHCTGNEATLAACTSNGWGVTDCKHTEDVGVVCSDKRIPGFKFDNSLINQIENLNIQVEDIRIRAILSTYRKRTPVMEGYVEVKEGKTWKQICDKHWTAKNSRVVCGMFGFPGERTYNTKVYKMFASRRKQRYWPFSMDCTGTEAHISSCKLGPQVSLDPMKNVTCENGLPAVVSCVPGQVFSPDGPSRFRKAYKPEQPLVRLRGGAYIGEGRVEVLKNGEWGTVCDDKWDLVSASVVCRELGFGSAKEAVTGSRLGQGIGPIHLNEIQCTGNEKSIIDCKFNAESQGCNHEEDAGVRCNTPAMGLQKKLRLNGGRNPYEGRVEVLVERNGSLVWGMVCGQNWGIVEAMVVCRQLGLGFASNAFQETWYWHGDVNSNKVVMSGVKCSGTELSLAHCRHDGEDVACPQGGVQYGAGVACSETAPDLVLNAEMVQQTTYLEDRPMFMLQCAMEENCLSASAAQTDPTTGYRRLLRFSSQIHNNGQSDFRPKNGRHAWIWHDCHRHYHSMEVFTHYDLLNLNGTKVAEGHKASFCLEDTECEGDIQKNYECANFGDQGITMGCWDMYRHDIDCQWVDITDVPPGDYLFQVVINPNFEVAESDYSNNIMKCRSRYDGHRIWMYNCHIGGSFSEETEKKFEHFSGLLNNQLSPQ
Procedure: as §1

[4] = tested on: massive, pedunculated keloids; details: cited from earlier work

Row | SMILES | IC50 [2] [µM] | IC50 [3] [µM] | other results
1 | CS(=O)(=O)c1cc(-c2ccccc2)cc(S(=O)(=O)c2ccc(CN)s2)c1 [CCT365623] |  |  | Metastasis and survival [1]: reduce metastasis and increase survival
2 | NC/C(=C\F)CS(=O)(=O)c1cccc2c1OCCO2 [Compound 33, (E)-2-(((2,3-dihydrobenzo[b][1,4]dioxin-5-yl)sulfonyl)methyl)-3-fluoroprop-2-en-1-amine] | < 10 | < 10 | 
3 | CS(=O)(=O)c1cccc(Oc2ccccc2S(=O)(=O)C/C(=C/F)CN)c1 [Compound 35, (E)-3-fluoro-2-(((2-(3-(methylsulfonyl)phenoxy)phenyl)sulfonyl)methyl)prop-2-en-1-amine] | < 5 | < 2 | 
4 | COc1cc2c(c(OC)c1OC)-c1ccc(OC)c(=O)cc1[C@@H](NC(C)=O)CC2 [colchicine] |  |  | Effect on surface scarring ([4]; human, in vivo): measurable beneficial effect on surface scarring
5 | CC(C)(S)[C@@H](N)C(=O)O [penicillamine] |  |  | Effect on surface scarring ([4]; BAPN or penicillamine, and colchicine, following excision of keloid and grafting): measurable beneficial effect on surface scarring

The next lines start with results.

Row | IC50 [2] [µM] | IC50 [3] [µM] | SMILES | other results
6 | < 10 | < 5 | NC/C(=C\F)CS(=O)(=O)c1cccc(CN2CCCCCC2=O)c1 [Compound 36, (E)-1-(3-((2-(aminomethyl)-3-fluoroallyl)sulfonyl)benzyl)azepan-2-one] | 
7 | < 2 | < 2 | NC/C(=C/F)CS(=O)(=O)c1ccccc1 [Compound 37, (Z)-3-fluoro-2-((phenylsulfonyl)methyl)prop-2-en-1-amine] | 

Source: patent US20260364030A1, “NOVEL SELECTIVE INHIBITORS OF LYSYL OXIDASES” (Syntara Limited, priority 2022, published 2026)
